Laboratory results published in the supplement of paper PMC11061612.

Assays:
Experiment in all cases: Bliss excess, mean over the matrix (fraction); higher = more synergy
[1] = test system: NCI-H2795 (Mesothelioma)
Summary of the method: (§1)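 Bliss excess equals the observed combination effect minus the expected value EA + EB − EA·EB, where EA and EB are the effects of each agent alone. Combination Emax is the second-highest inhibition within the matrix. Inhibition was scaled from CellTiter-Glo 2.0 luminescence, with 0 set by vehicle wells and 1 by blank wells, after 72 hours of two-drug dosing of cells plated in 1536-well plates.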

[2] = test system: SH-4 (Melanoma)
Summary of the method: as §1

[3] = test system: NB14 (Neuroblastoma)
Summary of the method: as §1

[4] = test system: NCI-H747 (Colorectal Carcinoma)
Summary of the method: as §1

[5] = test system: OC-314 (Ovarian Carcinoma)
Summary of the method: as §1

[6] = test system: SW626 (Colorectal Carcinoma)
Summary of the method: as §1

[7] = test system: KYSE-410 (Esophageal Squamous Cell Carcinoma)
Summary of the method: as §1

[8] = test system: TE-4 (Esophageal Squamous Cell Carcinoma)
Summary of the method: as §1

[9] = test system: LB771-HNC (Head and Neck Carcinoma)
Summary of the method: as §1

[10] = test system: UMC-11 (Other Solid Carcinomas)
Summary of the method: as §1

[11] = test system: LU-139 (Small Cell Lung Carcinoma)
Summary of the method: as §1

[12] = test system: LoVo (Colorectal Carcinoma)
Summary of the method: as §1

[13] = test system: EN (Endometrial Carcinoma)
Summary of the method: as §1

[14] = test system: NCI-H28 (Mesothelioma)
Summary of the method: as §1

[15] = test system: SW1271 (Small Cell Lung Carcinoma)
Summary of the method: as §1

[16] = test system: MHH-PREB-1 (B-Cell Non-Hodgkin's Lymphoma)
Summary of the method: as §1

[17] = test system: 639-V (Bladder Carcinoma)
Summary of the method: as §1

[18] = test system: HCC-15 (Squamous Cell Lung Carcinoma)
Summary of the method: as §1

[19] = test system: RKO (Colorectal Carcinoma)
Summary of the method: as §1

| Compound | Bliss excess [1] | Bliss excess [2] | Bliss excess [3] | Bliss excess [4] | Bliss excess [5] | Bliss excess [6] | Bliss excess [7] | Bliss excess [8] | Bliss excess [9] | Bliss excess [10] | Bliss excess [11] | Bliss excess [12] | Bliss excess [13] | Bliss excess [14] | Bliss excess [15] | Bliss excess [16] | Bliss excess [17] | Bliss excess [18] | Bliss excess [19] |
| --- | --- | --- | --- | --- | --- | --- | --- | --- | --- | --- | --- | --- | --- | --- | --- | --- | --- | --- | --- |
| COc1nnc2ccc(N3CCC(c4ccc(OCCN5CCN(C)C(=O)[C@H]5C)cc4)CC3)nn12 [AZD5153] + C=CCn1c(=O)c2cnc(Nc3ccc(N4CCN(C)CC4)cc3)nc2n1-c1cccc(C(C)(C)O)n1 [AZD1775] (first compound max 1 µM, partner max 1 µM) | -0.0308 | -0.106 | -0.073 | -0.0633 | 0.0105 | 0.0045 | -0.0516 | -0.0199 | -0.0069 | 0.0058 | -0.0474 | -0.0349 | -0.0753 | -0.0562 | -0.0763 | 0.007 | -0.0367 | -0.0356 | -0.0866 |
| NC1(C(=O)N[C@@H](CCO)c2ccc(Cl)cc2)CCN(c2ncnc3[nH]ccc23)CC1 [Capivasertib] + CCN(CCO)CCCOc1ccc2c(Nc3cc(CC(=O)Nc4cccc(F)c4)[nH]n3)ncnc2c1 [AZD2811] (first compound max 10 µM, 7x7, partner max 1 µM) | 0.0267 | -0.0507 | -0.03 | -0.0255 | -0.015 | -0.0338 | -0.0104 | 0.0241 | -0.0549 | -0.0195 | 0.0616 | -0.0387 | -0.0464 | -0.0484 | -0.0113 | -0.0306 | 0.0193 | -0.0366 | -0.0055 |
| COc1cc2ncnc(Nc3ccc(F)c(Cl)c3)c2cc1OCCCN1CCOCC1 [Gefitinib] + CC(C)n1c(=O)n(C)c2cnc3cc(F)c(-c4ccc(OCCCN5CCCCC5)nc4)cc3c21 [AZD1390] (first compound max 10 µM, 7x7, partner max 0.3 µM) | -0.0631 | -0.0669 | -0.0145 | -0.0986 | -0.0314 | -0.0777 | -0.0779 | -0.0286 | -0.0648 | -0.0399 | -0.0251 | -0.0418 | -0.0318 | – | -0.0388 | -0.0748 | -0.0765 | -0.0442 | -0.0362 |
| COc1nnc2ccc(N3CCC(c4ccc(OCCN5CCN(C)C(=O)[C@H]5C)cc4)CC3)nn12 [AZD5153] + Cn1cnc2c(F)c(Nc3ccc(Br)cc3Cl)c(C(=O)NOCCO)cc21 [Selumetinib] (first compound max 1 µM, 7x7, partner max 10 µM) | -0.03 | 0.0222 | -0.0325 | -0.0727 | -0.064 | -0.005 | -0.0784 | 0.0311 | -0.0895 | -0.031 | 0.0169 | 0.065 | 0.023 | -0.0199 | -0.0034 | -0.0323 | -0.0459 | 0.0567 | 0.0263 |
| COc1nnc2ccc(N3CCC(c4ccc(OCCN5CCN(C)C(=O)[C@H]5C)cc4)CC3)nn12 [AZD5153] + CCN(CCO)CCCOc1ccc2c(Nc3cc(CC(=O)Nc4cccc(F)c4)[nH]n3)ncnc2c1 [AZD2811] (first compound max 1 µM, 7x7, partner max 1 µM) | -0.0807 | -0.0194 | -0.0546 | -0.0623 | -0.04 | -0.0348 | -0.0182 | -0.0116 | -0.0006 | -0.123 | 0.0203 | -0.0623 | -0.0918 | -0.0415 | -0.0234 | 0.0074 | -0.063 | -0.0646 | -0.0096 |
| C[C@@H](c1ccc2nccn2c1)n1nnc2ncc(-c3cnn(C)c3)nc21 [Savolitinib] + Cc1c2c(nn1C)CSCc1cc(n(C)n1)CSc1cc(c3ccccc3c1)OCCCc1c(C(=O)O)n(C)c3c-2c(Cl)ccc13 [AZD5991] (first compound max 1 µM, 7x7, partner max 1 µM) | 0.008 | -0.0252 | -0.0411 | -0.0465 | -0.018 | 0.0147 | -0.0749 | -0.0289 | -0.054 | -0.0026 | -0.0213 | -0.0331 | -0.0027 | -0.0643 | -0.0415 | -0.0375 | -0.111 | -0.0349 | -0.0067 |
| CS(=O)(=O)CCNCc1ccc(-c2ccc3ncnc(Nc4ccc(OCc5cccc(F)c5)c(Cl)c4)c3c2)o1 [Lapatinib] + C[C@@H](Oc1cc(-c2cnn(C3CCNCC3)c2)cnc1N)c1c(Cl)ccc(F)c1Cl [Crizotinib] (first compound max 10 µM, 7x7, partner max 10 µM) | -0.0569 | -0.0365 | -0.0338 | -0.0413 | -0.0479 | -0.0681 | -0.0183 | 0.0198 | -0.0398 | -0.0964 | -0.0147 | -0.0217 | -0.0418 | -0.0342 | -0.03 | -0.0164 | -0.0596 | -0.0179 | -0.0977 |
| C=CCn1c(=O)c2cnc(Nc3ccc(N4CCN(C)CC4)cc3)nc2n1-c1cccc(C(C)(C)O)n1 [AZD1775] + CCc1c2c(nc3ccc(O)cc13)-c1cc3c(c(=O)n1C2)COC(=O)[C@]3(O)CC [SN-38] (first compound max 1 µM, partner max 0.3 µM) | -0.0951 | -0.072 | -0.007 | – | 0.0032 | – | – | – | – | – | -0.0526 | -0.0388 | 0.0209 | -0.0503 | -0.0391 | – | – | – | -0.0377 |
| C=CCn1c(=O)c2cnc(Nc3ccc(N4CCN(C)CC4)cc3)nc2n1-c1cccc(C(C)(C)O)n1 [AZD1775] + C1CN(CCC1(C(=O)N[C@@H](CCO)C2=CC=C(C=C2)Cl)N)C3=NC=NC4=C3C=CN4 [Capivasertib] (first compound max 3 µM, partner max 3 µM) | -0.0042 | -0.0713 | -0.0551 | -0.0485 | -0.0158 | -0.0606 | -0.0015 | -0.045 | -0.0581 | 0.0101 | 0.0096 | 0.0281 | -0.0623 | -0.0725 | -0.0161 | -0.005 | -0.0541 | -0.0331 | 0.0179 |
| NC1(C(=O)N[C@@H](CCO)c2ccc(Cl)cc2)CCN(c2ncnc3[nH]ccc23)CC1 [Capivasertib] + CC(C)n1c(=O)n(C)c2cnc3cc(F)c(-c4ccc(OCCCN5CCCCC5)nc4)cc3c21 [AZD1390] (first compound max 10 µM, 7x7, partner max 0.3 µM) | -0.0483 | -0.0856 | -0.0269 | -0.0791 | -0.0412 | -0.0828 | -0.0795 | -0.0233 | -0.0687 | -0.0807 | -0.0204 | -0.043 | -0.0625 | -0.0776 | -0.0347 | -0.0353 | -0.0376 | -0.0608 | -0.0429 |
| NC1(C(=O)N[C@@H](CCO)c2ccc(Cl)cc2)CCN(c2ncnc3[nH]ccc23)CC1 [Capivasertib] + CC(=O)c1c(C)c2cnc(Nc3ccc(N4CCNCC4)cn3)nc2n(C2CCCC2)c1=O [Palbociclib] (first compound max 10 µM, 7x7, partner max 10 µM) | 0.0247 | -0.045 | 0.0419 | -0.0032 | 0.0028 | 0.014 | 0.0199 | 0.0094 | -0.0781 | 0.039 | -0.0256 | -0.03 | -0.0165 | -0.0343 | 0.043 | -0.0158 | -0.0612 | -0.0442 | 0.0625 |
| CS(=O)(=O)CCNCc1ccc(-c2ccc3ncnc(Nc4ccc(OCc5cccc(F)c5)c(Cl)c4)c3c2)o1 [Lapatinib] + NC1(c2ccc(-c3nc4ccn5c(=O)[nH]nc5c4cc3-c3ccccc3)cc2)CCC1 [MK-2206] (first compound max 10 µM, 7x7, partner max 10 µM) | 0.0513 | 0.0025 | 0.0136 | -0.126 | 0.043 | – | – | – | – | – | 0.0119 | 0.0841 | -0.0024 | -0.0103 | 0.0083 | – | – | – | -0.0002 |
| Cc1nc(-c2cn3c(n2)-c2ccc(-c4cnn(C(C)(C)C(N)=O)c4)cc2OCC3)n(C(C)C)n1 [Taselisib] + O=C(Nc1ccc2[nH]nc(-c3ccncc3)c2c1)[C@@H]1CCN(CC(=O)N2CCN(c3ccc(-c4ncccn4)cc3)CC2)C1 [SCH772984] (first compound max 10 µM, 7x7, partner max 5 µM) | 0.0704 | 0.0374 | 0.192 | – | 0.0521 | – | – | – | – | – | -0.0066 | -0.0284 | -0.034 | 0.0417 | -0.0096 | – | – | – | 0.146 |
| CC(=O)c1c(C)c2cnc(Nc3ccc(N4CCNCC4)cn3)nc2n(C2CCCC2)c1=O [Palbociclib] + CC1(C)CCC(CN2CCN(c3ccc(C(=O)NS(=O)(=O)c4ccc(NCC5CCOCC5)c([N+](=O)[O-])c4)c(Oc4cnc5[nH]ccc5c4)c3)CC2)=C(c2ccc(Cl)cc2)C1 [Venetoclax] (first compound max 10 µM, 7x7, partner max 1 µM) | -0.0365 | -0.0734 | -0.0103 | 0.017 | -0.0526 | -0.0152 | -0.0511 | -0.0113 | -0.0429 | 0.0737 | 0.0462 | -0.0178 | -0.0405 | -0.0169 | -0.0513 | -0.0187 | -0.0686 | -0.0364 | -0.0498 |
| Cn1cnc2c(F)c(Nc3ccc(Br)cc3Cl)c(C(=O)NOCCO)cc21 [Selumetinib] + CC(C)n1c(=O)n(C)c2cnc3cc(F)c(-c4ccc(OCCCN5CCCCC5)nc4)cc3c21 [AZD1390] (first compound max 10 µM, 7x7, partner max 0.3 µM) | -0.0439 | -0.0993 | 0.0021 | -0.0334 | -0.0357 | -0.0121 | -0.0327 | -0.0461 | -0.067 | -0.0422 | -0.0259 | -0.0325 | -0.0086 | -0.0403 | 0.0379 | -0.0218 | -0.0783 | 0.0148 | -0.0273 |
| CS(=O)(=O)CCNCc1ccc(-c2ccc3ncnc(Nc4ccc(OCc5cccc(F)c5)c(Cl)c4)c3c2)o1 [Lapatinib] + Cn1cnc2c(F)c(Nc3ccc(Br)cc3Cl)c(C(=O)NOCCO)cc21 [Selumetinib] (first compound max 10 µM, 7x7, partner max 10 µM) | -0.0488 | -0.0519 | 0.0397 | – | 0.0644 | – | – | – | – | – | -0.0161 | 0.0361 | -0.0829 | -0.0026 | -0.0167 | – | – | – | 0.0413 |
